Assay: recombinant UMI read abundance after kanamycin selection (control-corrected) (log10(CPM+1)); higher = more efficient recombination; extreme values may be limits of the assay; sequences stand for … in AGTGCAGAGAAAATCGGCCAGTTTTCTCTGCCTGCAGTCCGCATGCCGTGGGACCCCTTGGGTTCTAACCTGTTGCCTAGATTTATGCAGCGGACTGCCTTTCTCCCAAAGTGATAAACCGG…AGGTTGGTTTCACT; site = the 11-nt donor
Summary of the method: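 Each donor and donor-binding-loop pair was tracked by a 12-nt UMI on a plasmid carrying a promoterless kanamycin gene. With a second plasmid supplying a fixed target and T7-inducible IS621 bridge recombinase, the pool was plated in Escherichia coli on IPTG (0.07 mM) plus kanamycin or unselected. Sequencing of recombinant UMIs across the donor–target junction gave counts expressed as log10(CPM+1) after replicate averaging and control-derived scaling.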
With “ATGGTCGCATGGACCGGTTTTCCCGGTAATCCGTATTTGTT (site ATGGTCGCTAA)” the “recombinant UMI read abundance (log10)” value was 1.29.
For “ATGGTGTCATGGACCGGTTTTCCCGGTAATCCGTATTTGCT (site ATGGTGTCTAG)”, the “recombinant UMI read abundance (log10)” value was 3.4.
In the case of “ATGTAGGCATGGACCGGTTTTCCCGGTAATCCGTATTTGGA (site ATGTAGGCTAC)”, the “recombinant UMI read abundance (log10)” value is reported as 0.451.
For “ATGTAGGCATGGACCGGTTTTCCCGGTAATCCGTATTTGGA (site ATGTAGGCTCC)”, the “recombinant UMI read abundance (log10)” value was 0.209.
For “ATGTAGGCATGGACCGGTTTTCCCGGTAATCCGTATTTGGA (site ATGTAGGCTGC)”, the “recombinant UMI read abundance (log10)” value was 1.58.
For “ATGTAGGCATGGACCGGTTTTCCCGGTAATCCGTATTTGGA (site ATGTAGGCTTC)”, the “recombinant UMI read abundance (log10)” value was 1.
With “ATGTATACATGGACCGGTTTTCCCGGTAATCCGTATTTGAC (site ATATATACTGT)” the “recombinant UMI read abundance (log10)” value was 2.59.
With “ATGTATACATGGACCGGTTTTCCCGGTAATCCGTATTTGAC (site ATCTATACTGT)” the “recombinant UMI read abundance (log10)” value was 0.457.
In the case of “ATGTATACATGGACCGGTTTTCCCGGTAATCCGTATTTGAC (site ATGTATACTGT)”, the “recombinant UMI read abundance (log10)” value is reported as 3.18.
In the case of “ATGTATACATGGACCGGTTTTCCCGGTAATCCGTATTTGAC (site ATTTATACTGT)”, the “recombinant UMI read abundance (log10)” value is reported as 0.661.
With “ATGTCCGCATGGACCGGTTTTCCCGGTAATCCGTATTTGCC (site ATGTCCGCTGG)” the “recombinant UMI read abundance (log10)” value was 2.45.
With “ATGTGGGCATGGACCGGTTTTCCCGGTAATCCGTATTTGTA (site ATGTGGGCTTA)” the “recombinant UMI read abundance (log10)” value was 2.32.
With “ATGTTGGCATGGACCGGTTTTCCCGGTAATCCGTATTTGGC (site ATGTAGGCTGC)” the “recombinant UMI read abundance (log10)” value was 1.71.
In the case of “ATGTTGGCATGGACCGGTTTTCCCGGTAATCCGTATTTGGC (site ATGTCGGCTGC)”, the “recombinant UMI read abundance (log10)” value is reported as 0.939.
For “ATGTTGGCATGGACCGGTTTTCCCGGTAATCCGTATTTGGC (site ATGTGGGCTGC)”, the “recombinant UMI read abundance (log10)” value was 0.332.
For “ATGTTGGCATGGACCGGTTTTCCCGGTAATCCGTATTTGGC (site ATGTTGGCTGC)”, the “recombinant UMI read abundance (log10)” value was 2.68.
In the case of “ATTAAGACATGGACCGGTTTTCCCGGTAATCCGTATTTGAA (site ATTAAGACTTT)”, the “recombinant UMI read abundance (log10)” value is reported as 1.43.
For “ATTACGACATGGACCGGTTTTCCCGGTAATCCGTATTTGGG (site ATTACGACTCC)”, the “recombinant UMI read abundance (log10)” value was 0.00852.
With “ATTATTACATGGACCGGTTTTCCCGGTAATCCGTATTTGCA (site ATTATTACTTG)” the “recombinant UMI read abundance (log10)” value was 1.8.
In the case of “ATTCATGCATGGACCGGTTTTCCCGGTAATCCGTATTTGGT (site ATTCATGCTAC)”, the “recombinant UMI read abundance (log10)” value is reported as 0.729.
In the case of “ATTCCATCATGGACCGGTTTTCCCGGTAATCCGTATTTGGA (site ATTCCATCTTC)”, the “recombinant UMI read abundance (log10)” value is reported as 0.345.
In the case of “ATTCGTCCATGGACCGGTTTTCCCGGTAATCCGTATTTGGT (site ATTCGTCCTAC)”, the “recombinant UMI read abundance (log10)” value is reported as 0.0259.
For “ATTGACACATGGACCGGTTTTCCCGGTAATCCGTATTTGGT (site ATTGAAACTAC)”, the “recombinant UMI read abundance (log10)” value was 0.168.
In the case of “ATTGACACATGGACCGGTTTTCCCGGTAATCCGTATTTGGT (site ATTGACACTAC)”, the “recombinant UMI read abundance (log10)” value is reported as 0.911.
In the case of “ATTGACACATGGACCGGTTTTCCCGGTAATCCGTATTTGGT (site ATTGAGACTAC)”, the “recombinant UMI read abundance (log10)” value is reported as 0.811.
With “ATTGACACATGGACCGGTTTTCCCGGTAATCCGTATTTGGT (site ATTGATACTAC)” the “recombinant UMI read abundance (log10)” value was 0.459.
With “ATTGAGACATGGACCGGTTTTCCCGGTAATCCGTATTTGCT (site ATTGAGACTAA)” the “recombinant UMI read abundance (log10)” value was 0.627.
With “ATTGAGACATGGACCGGTTTTCCCGGTAATCCGTATTTGCT (site ATTGAGACTAC)” the “recombinant UMI read abundance (log10)” value was 0.379.
For “ATTGAGACATGGACCGGTTTTCCCGGTAATCCGTATTTGCT (site ATTGAGACTAG)”, the “recombinant UMI read abundance (log10)” value was 2.42.
For “ATTGAGACATGGACCGGTTTTCCCGGTAATCCGTATTTGCT (site ATTGAGACTAT)”, the “recombinant UMI read abundance (log10)” value was 0.827.
With “ATTGAGACATGGACCGGTTTTCCCGGTAATCCGTATTTGGC (site ATTGAGACTAC)” the “recombinant UMI read abundance (log10)” value was 0.0133.
In the case of “ATTGAGACATGGACCGGTTTTCCCGGTAATCCGTATTTGGC (site ATTGAGACTCC)”, the “recombinant UMI read abundance (log10)” value is reported as 0.38.
In the case of “ATTGAGACATGGACCGGTTTTCCCGGTAATCCGTATTTGGC (site ATTGAGACTGC)”, the “recombinant UMI read abundance (log10)” value is reported as 1.83.
For “ATTGAGACATGGACCGGTTTTCCCGGTAATCCGTATTTGGC (site ATTGAGACTTC)”, the “recombinant UMI read abundance (log10)” value was 0.679.

Reference: the supplement of paper PMC11208160
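Note: IS621 bridge recombinase in Escherichia coli cells against a fixed T5 target plasmid.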
